Assay results taken from PMC11997059, “Drugit: crowd-sourcing molecular design of non-peptidic VHL binders” (Nature Communications, 2025).
In brackets after ≈: the same amount, converted by molar mass. Like-named read-outs stand apart in the source and are kept apart here.

How the values were obtained:
[1] = Solubility testing (aqueous, LCUV); type: physicochemical; details: aqueous buffer, kinetic from dmso stock, pH 6.8, final concentration 125 µg/mL
Description: Dilution into a 1:1 mixture of acetonitrile and water was used as a reference. After 24 h, the incubations were filtrated, and the filtrate was analyzed by LCUV.

[2] = Bidirectional permeability in Caco2 cells; type: in vitro ADME; details: human, Caco-2, 1 or 10 µM, pH 7.4; for Papp A→B: apical to basolateral
Description: Bidirectional permeability of test compounds across a Caco2 cell monolayer was measured as described previously. […] Cells were incubated with the compounds for up to 2 h, and samples from the opposite (receiver) compartment were taken at different time points.

[3] = tested on: VHL; details: read-out: TR-FRET IC50 (value marked *: FP assay), ref as reported previously; cited from earlier work
[4] = target: VCB (VHL-ElonginC-ElonginB) complex (Homo sapiens, UniProt P40337); experiment: TR-FRET VCB—VHL tracer binding assay
Chain of VCB (VHL-ElonginC-ElonginB) complex (P40337 54-213): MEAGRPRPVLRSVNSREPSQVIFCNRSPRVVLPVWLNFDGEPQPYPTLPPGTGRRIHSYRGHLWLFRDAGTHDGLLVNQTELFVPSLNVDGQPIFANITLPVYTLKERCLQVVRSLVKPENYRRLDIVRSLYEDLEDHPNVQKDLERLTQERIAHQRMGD
Chain of VCB (VHL-ElonginC-ElonginB) complex (Q15370 1-104 partner limits assumed): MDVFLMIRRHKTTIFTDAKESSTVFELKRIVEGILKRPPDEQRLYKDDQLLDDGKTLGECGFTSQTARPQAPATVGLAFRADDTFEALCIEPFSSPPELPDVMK
Chain of VCB (VHL-ElonginC-ElonginB) complex (Q15369 17-112 partner limits assumed): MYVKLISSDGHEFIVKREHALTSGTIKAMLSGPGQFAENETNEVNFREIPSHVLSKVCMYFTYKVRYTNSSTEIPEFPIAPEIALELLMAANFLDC

[5] = target: 13C-methyl labeled VCB complex (Homo sapiens, UniProt P40337); experiment: Protein-observed NMR titration / hit validation; details: for induced CSPs, Val and Leu region (binding region): 200 µM 13C labeled VCB, 500 µM VH298 or reference molecule 2, 1000 µM of 1
Chain of 13C-methyl labeled VCB complex (P40337 54-213): as the sequence (P40337 54-213) above
Chain of 13C-methyl labeled VCB complex (Q15370 1-104 partner limits assumed): as the sequence (Q15370 1-104 partner limits assumed) above
Chain of 13C-methyl labeled VCB complex (Q15369 17-112 partner limits assumed): as the sequence (Q15369 17-112 partner limits assumed) above

[6] = NMR detected solubility in NMR buffer; type: physicochemical; details: 500 µM target, 20 mM TRIS, 100 mM NaCl, pH 7.5 in D2O, 1H NMR vs maleic acid
[7] = read-out: TR-FRET IC50, Cy5-labeled VHL tracer, 10 nM His-tagged VCB, mean ± s.d., 1 as diastereomeric mixture

| IC50 [4, 7] | solubility [6] | SMILES | also measured |
| --- | --- | --- | --- |
| 8.8 ± 0.8 µM | < 10.0 µM | Cc1ncsc1-c1ccc(-c2ccc3nccc(C(N)=O)c3c2)cc1 [compound 16] | – |
| 313 ± 135 µM | 400.0 µM (≈ 151 µg/mL) | Cc1ncsc1-c1ccc(CNC(=O)[C@@H]2C[C@@H](O)Cc3ccccc32)cc1 [compound 17] | – |
| 166 ± 77 µM | > 500.0 µM | Cc1ncsc1-c1ccc(CNC(=O)[C@H]2C[C@H](O)Cc3ccccc32)cc1 [compound 18] | – |
| > 100 µM | 230.0 µM (≈ 94 µg/mL) | Cc1ncsc1-c1ccc(CNC(=O)C2CC(O)CN(c3ccccn3)C2)cc1 (centres unmarked) [compound 19] | – |
| > 100 µM | 110.0 µM (≈ 44.7 µg/mL) | Cc1ncsc1-c1ccc(CNC(=O)C2CC(O)CC(c3ccccc3)C2)cc1 (centres unmarked) [compound 23] | – |
| > 500 µM | > 500.0 µM | O=S1(=O)Cc2ccccc2-c2[nH]nc(Br)c21 [compound 27] | – |
| 244 ± 22 µM | 360.0 µM (≈ 117 µg/mL) | O=S1(=O)Cc2ccccc2-c2[nH]nc(NCc3ccccc3)c21 [compound 28] | – |
| 175 ± 18 µM | – | O=[N+]([O-])c1ccc2c(c1)CS(=O)(=O)c1cn[nH]c1-2 [compound 29] | – |
| > 100 µM | 20.0 µM (≈ 8.09 µg/mL) | Cc1ncsc1-c1ccc(CNC(=O)c2cc(Br)c[nH]c2=O)cc1 [compound 34] | – |
| – | < 10.0 µM | Cc1ncsc1-c1ccc(CNC(=O)c2cc(-c3ccccc3)c[nH]c2=O)cc1 [compound 35] | – |
| 13 ± 4.5 µM | < 10.0 µM | Cc1ncsc1-c1ccc(CC(=O)Nc2c[nH]c3ccccc23)cc1 [compound 36] | – |
| > 100 µM | < 10.0 µM | Cc1ncsc1-c1ccc(CNC(=O)Cc2ccc(-c3ccccc3)cc2CO)cc1 [compound 37] | – |
| 85.7 ± 16.2 µM | 80.0 µM (≈ 31.1 µg/mL) | Cc1ncsc1-c1ccc(CNCc2cc(O)cc(Br)c2)cc1 [compound 38] | – |
| 70.7 ± 0.4 µM | < 10.0 µM | Cc1ncsc1-c1ccc(CN(Cc2cc(O)cc(Br)c2)C(=O)OC(C)(C)C)cc1 [compound 39] | – |
| > 100 µM | < 10.0 µM | Cc1ncsc1-c1ccc(CNC(=O)c2cc(Br)cc(=O)[nH]2)cc1 [compound 41] | – |
| 144 ± 10 µM | > 500.0 µM | Cc1ncsc1-c1ccc(CNC(=O)c2cc(C#N)cc(O)n2)cc1 [compound 42] | – |
| > 500 µM | > 500.0 µM | NC(=O)c1cn[nH]c1-c1cccc2ccccc12 [compound 43] | – |

The next lines start with the molecule.

| SMILES | IC50 [4, 7] | solubility [6] | also measured |
| --- | --- | --- | --- |
| Cc1ncsc1-c1ccc(CNC(=O)[C@@H]2C[C@@H](O)CN2C(=O)[C@@H](NC(=O)C2(F)CC2)C(C)(C)C)cc1 [Reference molecule 1] | – | – | solubility at 24 h [1]: > 115 µg/mL; Papp A→B [2]: 2.9 ×10⁻⁶ cm/s; IC50 [3]: […] |
| Cc1cc(CC(=O)N2C[C@H](O)C[C@H]2C(=O)NCc2ccc(Cl)cc2)on1 [Reference molecule 2] | 132 ± 38 µM | – | solubility at 24 h [1]: > 88 µg/mL; efflux ratio [2]: 4.8; induced CSPs, Val and Leu region (binding region) [5]: interact with the same binding region; Kd ([5]; read-out: NMR KD, fit of dose-dependent chemical shifts of peaks #1 and #2, two independent titrations): 29 ± 1 µM |
| Cc1ncsc1-c1ccc(CNC(=O)[C@@H]2C[C@@H](O)CN2C(=O)[C@@H](NC(=O)C2(C#N)CC2)C(C)(C)C)cc1 [VH298, (2S,4R)-1-((S)-2-(1-Cyanocyclopropanecarboxamido)−3,3-dimethylbutanoyl)-4-hydroxy-N-(4-(4-methylthiazol-5-yl)benzyl)pyrrolidine-2-carboxamide] | – | – | induced CSPs, Val and Leu region (binding region) [5]: interact with the same binding region |
| Cc1ncsc1-c1ccc(CNC(=O)C2CC(O)CN(c3ccccn3)C2=O)cc1 (centres unmarked) [compound 1] | – | – | solubility ([6]; NMR buffer, aqueous buffer): > 500 µM; solubility at 24 h [1]: > 98 µg/mL; Papp A→B [2]: 23 ×10⁻⁶ cm/s; IC50 [4]: 264 ± 30 µM; Kd [5]: 182 ± 76 µM; induced CSPs, Val and Leu region (binding region) [5]: interact with the same binding region |
| Cc1ncsc1-c1ccc(CNC(=O)c2cc(=O)cc(Cl)[nH]2)cc1 [compound 2] | > 100 µM | 20.0 µM (≈ 7.2 µg/mL) | – |
| Cc1ncsc1-c1ccc(CNC(=O)c2cc(=O)cc(-c3ccccc3)[nH]2)cc1 [compound 3] | 13.8 ± 1.8 µM | 280.0 µM (≈ 112 µg/mL) | – |
| Cc1ncsc1-c1ccc(CNC(=O)c2c[nH]cc(Br)c2=O)cc1 [compound 4] | > 100 µM | – | solubility ([6]; NMR buffer, aqueous buffer): 40 µM (≈ 16.2 µg/mL) |
| Cc1ncsc1-c1ccc(CNC(=O)c2c[nH]cc(-c3ccccc3)c2=O)cc1 [compound 5] | > 100 µM | 20.0 µM (≈ 8.03 µg/mL) | – |
| Cc1ncsc1-c1ccc(CNCc2cc(CO)nc(N(C)c3ccccc3)c2)cc1 [compound 6] | > 500 µM | 70.0 µM (≈ 30.1 µg/mL) | – |
| Cc1ncsc1-c1ccc(CN(Cc2cc(Cl)nc(CO)c2)C(=O)OC(C)(C)C)cc1 [compound 7] | 106 ± 5.2 µM | 60.0 µM (≈ 27.6 µg/mL) | – |
| CN(CCNCc1ccccc1)c1cnn[nH]1 [compound 8] | > 500 µM | 430.0 µM (≈ 99.5 µg/mL) | – |
| Cc1ncsc1-c1ccc(CNc2cc(CO)cc3c2cnn3C)cc1 [compound 9] | – | – | solubility ([6]; NMR buffer, aqueous buffer): 110 µM (≈ 40.1 µg/mL); IC50 [4]: > 100 µM |
| Cc1ncsc1-c1ccc(CNc2cc(CO)cc3nn(C)cc23)cc1 [compound 10] | – | – | solubility ([6]; NMR buffer, aqueous buffer): 240 µM (≈ 87.5 µg/mL); IC50 [4]: 167 ± 47 µM |
| Cc1ncsc1-c1ccc(C(=O)Nc2cc(CO)cc3c2cnn3C)cc1 [compound 11] | > 500 µM | 180.0 µM (≈ 68.1 µg/mL) | – |
| Cc1ncsc1-c1ccc(C(=O)Nc2cc(CO)cc3nn(C)cc23)cc1 [compound 12] | 255 ± 45 µM | 70.0 µM (≈ 26.5 µg/mL) | – |
| Cc1ncsc1-c1ccc(CNC(=O)c2cc(O)cc(Br)c2)cc1 [compound 13] | > 100 µM | 20.0 µM (≈ 8.07 µg/mL) | – |
| Cc1ncsc1-c1ccc(CNC(=O)c2cc(O)cc(-c3ccccc3)c2)cc1 [compound 14] | 15.6 ± 1.2 µM | < 10.0 µM | – |
| Cc1ncsc1-c1ccc(-c2ccc3cccc(C(N)=O)c3c2)cc1 [compound 15] | – | – | solubility ([6]; NMR buffer, aqueous buffer): < 10 µM |
| O=C(Cc1ccc2cc(O)ccc2c1)Nc1cc[nH]n1 [compound 22] | – | – | solubility ([6]; NMR buffer, aqueous buffer): 350 µM (≈ 93.6 µg/mL); IC50 [4]: 315 ± 44 µM |
| Cc1ncsc1-c1ccc(CNC(=O)[C@@H]2C[C@@H](O)C[C@H](c3ccccc3)C2)cc1 [compound 24] | – | – | solubility ([6]; NMR buffer, aqueous buffer): < 10 µM; IC50 [4]: > 100 µM |
| Cc1ncsc1-c1ccc(CNC(=O)[C@H]2C[C@H](O)C[C@@H](c3ccccc3)C2)cc1 [compound 25] | – | – | solubility ([6]; NMR buffer, aqueous buffer): < 10 µM; IC50 [4]: > 100 µM |
| O=S1(=O)Cc2ccccc2-c2[nH]ncc21 [compound 26] | – | – | solubility ([6]; NMR buffer, aqueous buffer): > 500 µM; IC50 [4]: 265 ± 74 µM |
| Cc1ncsc1-c1ccc(CNc2cc(C(C)C)c[nH]c2=O)cc1 [compound 33] | – | – | solubility ([6]; NMR buffer, aqueous buffer): 50 µM (≈ 17 µg/mL); IC50 [4]: 71.7 ± 49.3 µM |
| Cc1ncsc1-c1ccc(CNCc2cc(O)cc(N(C)c3ccccc3)c2)cc1 [compound 40] | – | – | solubility ([6]; NMR buffer, aqueous buffer): < 10 µM; IC50 [4]: 67.8 ± 5.1 µM |
